Measurements published in patent US8921546B2, “Imidazolothiazole compounds for the treatment of disease” (Ambit Biosciences Corporation, priority 2006, dated 2014).
Where a name gives a salt, the structure may show the parent alone. Read-outs that look alike come from different tables or passages of the source.

Tests used:
MV4-11 cells = assay: Cellular proliferation assay (MTS), MV4-11; type: cell-based; conditions: Homo sapiens
Description: Cellular Proliferation Assay
Cancer cell viability and proliferation can be evaluated using a tetrazolium salt reduction cell-based assay. In viable cells, this colorimetric assay can measure mitochondrial reduction of a tetrazolium component (MTS) into an […] formazan product.
This cell line was used to determine the ability of the compounds provided herein to inhibit Flt3 in intact cells. The RS4-11 cell line, which expresses the wild-type (WT) receptor, is also used as a control to verify the test compound's ability to inhibit the FLT3 receptor containing the ITD mutation.
MV4-11 cells were plated at 10,000 cells per well in DMEM medium with 0.5% serum. RS4-11 cells were plated at 20,000 cells per well in RPMI with 0.5% serum. […] An aliquot from each well of the compound plate was transferred to the plated cells and then incubated @ 37° C. in 5% CO2 (for 3 days for the MV4-11 cells, 2 days for the RS4-11 cells).
MTS tetrazolium compound (Owen's reagent) was thawed in a H2O bath. 20 μl of MTS tetrazolium was added to each well of optical plate and the cells were incubated @ 37° C. in 5% CO2 for 2 hours.

FLT3 = biological target: T1, FLT3 (Homo sapiens, UniProt P36888); assay: Binding constant (Kd) measurement, phage-displayed kinase competition binding assay, FLT3
T1 construct: made in house
T1 sequence (P36888 27-993): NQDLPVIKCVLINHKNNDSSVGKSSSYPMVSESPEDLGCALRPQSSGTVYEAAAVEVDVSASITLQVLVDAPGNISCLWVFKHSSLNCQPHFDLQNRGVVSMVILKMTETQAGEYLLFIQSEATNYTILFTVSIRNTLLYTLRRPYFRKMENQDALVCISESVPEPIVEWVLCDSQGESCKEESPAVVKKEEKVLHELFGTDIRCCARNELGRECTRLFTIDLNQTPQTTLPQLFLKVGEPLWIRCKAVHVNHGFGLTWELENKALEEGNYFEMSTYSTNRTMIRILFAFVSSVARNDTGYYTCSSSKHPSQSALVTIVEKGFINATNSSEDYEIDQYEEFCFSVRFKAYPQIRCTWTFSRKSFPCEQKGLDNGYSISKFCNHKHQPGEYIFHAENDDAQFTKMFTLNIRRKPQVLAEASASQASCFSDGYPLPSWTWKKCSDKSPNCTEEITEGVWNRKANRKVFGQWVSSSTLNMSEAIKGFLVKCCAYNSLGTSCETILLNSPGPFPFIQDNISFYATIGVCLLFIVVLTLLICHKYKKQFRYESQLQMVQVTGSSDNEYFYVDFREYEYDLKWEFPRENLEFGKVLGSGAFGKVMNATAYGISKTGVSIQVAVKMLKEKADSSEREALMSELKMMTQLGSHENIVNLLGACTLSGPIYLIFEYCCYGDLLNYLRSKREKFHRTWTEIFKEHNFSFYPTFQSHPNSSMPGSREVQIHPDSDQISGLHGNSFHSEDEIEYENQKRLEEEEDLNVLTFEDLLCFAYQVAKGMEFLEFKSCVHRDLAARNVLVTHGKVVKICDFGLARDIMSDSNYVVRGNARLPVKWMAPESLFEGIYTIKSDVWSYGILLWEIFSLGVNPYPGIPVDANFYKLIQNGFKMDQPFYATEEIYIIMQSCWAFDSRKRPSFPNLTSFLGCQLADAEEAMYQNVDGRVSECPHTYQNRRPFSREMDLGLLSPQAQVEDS
Method: (§1) Binding Constant (Kd) Measurements for Small-Molecule-Kinase Interactions
(§2) By testing across a large class of protein kinases, specificity of the kinase inhibitors provided herein is also determined. The components of the assays include various human kinases expressed as fusions to T7 bacteriophage particles and immobilized ligands that bind to the ATP site of the kinases. […] If the test compound binds the kinase, it competes with the immobilized ligand and prevents binding to the solid support. […] The results are read out by quantitating the amount of fusion protein bound to the solid support, which is accomplished by either traditional phage plaque assays or by quantitative PCR (qPCR) using the phage genome as a template.

KIT = biological target: T2, KIT (Homo sapiens, UniProt P10721); assay: Binding constant (Kd) measurement, phage-displayed kinase competition binding assay, KIT
T2 construct: made in house
Method: as §1, §2

CSF1R = biological target: T3, CSF1R (Homo sapiens, UniProt P07333); assay: Binding constant (Kd) measurement, phage-displayed kinase competition binding assay, CSF1R
T3 construct: made in house
Method: as §1, §2

[1] = MV4-11 cells, 72 hour incubation, MTS, read-out: Cellular Assay MV-proliferation IC50
[2] = read-out: Binding Assay FLT3 Kd
[3] = MV4-11, 72 h, read-out: Cellular Assay MV-proliferation IC50 (nM)

T2 sequence (P10721 26-976): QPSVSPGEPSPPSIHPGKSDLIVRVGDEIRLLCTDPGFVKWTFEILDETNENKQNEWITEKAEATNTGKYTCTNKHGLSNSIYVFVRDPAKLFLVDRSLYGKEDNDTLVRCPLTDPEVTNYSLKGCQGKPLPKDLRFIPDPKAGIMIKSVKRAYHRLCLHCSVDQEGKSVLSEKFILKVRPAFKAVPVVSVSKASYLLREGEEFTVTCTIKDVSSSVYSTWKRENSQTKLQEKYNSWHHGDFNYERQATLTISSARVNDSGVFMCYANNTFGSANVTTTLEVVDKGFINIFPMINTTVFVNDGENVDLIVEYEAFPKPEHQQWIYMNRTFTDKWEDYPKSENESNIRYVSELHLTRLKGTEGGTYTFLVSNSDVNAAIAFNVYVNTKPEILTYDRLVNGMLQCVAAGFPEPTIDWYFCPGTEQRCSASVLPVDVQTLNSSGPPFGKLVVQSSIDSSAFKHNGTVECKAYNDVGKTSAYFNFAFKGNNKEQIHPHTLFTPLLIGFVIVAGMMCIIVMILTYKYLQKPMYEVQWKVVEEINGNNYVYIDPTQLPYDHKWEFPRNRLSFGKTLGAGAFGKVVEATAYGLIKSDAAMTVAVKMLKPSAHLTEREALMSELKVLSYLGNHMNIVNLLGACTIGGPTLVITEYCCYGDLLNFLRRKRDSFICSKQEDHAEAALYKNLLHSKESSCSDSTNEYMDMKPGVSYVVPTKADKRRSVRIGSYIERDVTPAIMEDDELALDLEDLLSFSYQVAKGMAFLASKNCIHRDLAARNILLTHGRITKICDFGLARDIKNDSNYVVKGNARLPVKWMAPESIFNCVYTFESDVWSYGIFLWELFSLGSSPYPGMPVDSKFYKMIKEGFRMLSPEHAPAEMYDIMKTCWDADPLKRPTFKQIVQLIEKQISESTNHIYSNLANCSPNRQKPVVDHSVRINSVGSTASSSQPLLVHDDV
T3 sequence (P07333 20-972): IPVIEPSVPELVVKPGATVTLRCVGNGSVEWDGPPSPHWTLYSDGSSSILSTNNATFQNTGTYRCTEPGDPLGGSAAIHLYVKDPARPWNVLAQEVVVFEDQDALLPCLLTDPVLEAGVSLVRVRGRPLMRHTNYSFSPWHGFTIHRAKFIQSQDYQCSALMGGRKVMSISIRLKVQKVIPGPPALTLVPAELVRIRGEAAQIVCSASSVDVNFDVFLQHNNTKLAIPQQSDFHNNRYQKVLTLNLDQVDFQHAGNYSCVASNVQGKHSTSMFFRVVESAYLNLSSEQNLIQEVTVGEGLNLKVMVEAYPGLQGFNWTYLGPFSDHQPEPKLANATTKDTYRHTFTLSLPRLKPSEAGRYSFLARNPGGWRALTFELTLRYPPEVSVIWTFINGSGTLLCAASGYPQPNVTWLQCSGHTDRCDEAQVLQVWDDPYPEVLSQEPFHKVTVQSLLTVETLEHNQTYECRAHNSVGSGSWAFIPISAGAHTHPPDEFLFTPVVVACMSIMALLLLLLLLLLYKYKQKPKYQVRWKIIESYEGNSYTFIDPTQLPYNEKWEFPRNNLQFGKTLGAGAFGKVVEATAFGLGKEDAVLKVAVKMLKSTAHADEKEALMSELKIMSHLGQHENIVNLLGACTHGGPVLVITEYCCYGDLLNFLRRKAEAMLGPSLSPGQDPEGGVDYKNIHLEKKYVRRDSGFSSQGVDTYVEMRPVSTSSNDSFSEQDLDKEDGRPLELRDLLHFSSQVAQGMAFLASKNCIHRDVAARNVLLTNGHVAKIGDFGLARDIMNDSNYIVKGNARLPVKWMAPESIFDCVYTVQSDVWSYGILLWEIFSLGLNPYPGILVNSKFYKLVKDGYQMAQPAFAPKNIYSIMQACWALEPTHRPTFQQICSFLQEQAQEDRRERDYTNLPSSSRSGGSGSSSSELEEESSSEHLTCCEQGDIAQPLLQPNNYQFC

Row | IC50 (MV4-11 cells; [1]) [nM] | Kd (FLT3; [2]) [nM] | Kd (KIT) [nM] | Kd (CSF1R) [nM] | SMILES | Kd (FLT3) [nM] | IC50 (MV4-11 cells; [3]) [nM]
1 | < 10 | < 10 |  |  | CC(C)(C)c1cc(NC(=O)Nc2ccc(-c3cn4c(n3)sc3ccccc34)cc2)no1 [Compound A1] |  | 
2 | < 10 | < 10 | 10 to 100 |  | CN1CCN(CCCOc2ccc3c(c2)sc2nc(-c4ccc(NC(=O)Nc5cc(C(C)(C)C)on5)cc4)cn23)CC1 [Compound B9, 1-(5-tert-Butyl-isoxazol-3-yl)-3-(4-{7-[3-(4-methyl-piperazin-1-yl)-propoxy]-benzo[d]imidazo[2,1-b]thiazol-2-yl}-phenyl)-urea] |  | 
3 | < 10 | < 10 |  |  | CC(C)(C)c1cc(NC(=O)Nc2ccc(-c3cn4c(n3)sc3cc(O)ccc34)cc2)no1 [Compound A4, 1-(5-tert-butyl-isoxazol-3-yl)-3-[4-(7-hydroxy-benzo[d]imidazo[2,1-b]thiazol-2-yl)-phenyl]-urea] |  | 
4 | < 10 |  | < 10 | 10 to 100 | CCN(CC)CCNC(=O)Cc1ccc2c(c1)sc1nc(-c3ccc(NC(=O)Nc4cc(C(C)(C)C)on4)cc3)cn12 [Compound C16, 2-(2-{4-[3-(5-tert-butyl-isoxazol-3-yl)-ureido]-phenyl}-benzo[d]imidazo[2,1-b]thiazol-7-yl)-N-(2-diethylamino-ethyl)-acetamide hydrochloride] |  | 
5 | < 10 |  | < 10 |  | CCN1CCN(CCCc2ccc3c(c2)sc2nc(-c4ccc(NC(=O)Nc5cc(C(C)(C)C)on5)cc4)cn23)CC1 [Compound D1, N-(5-tert-Butyl-isoxazol-3-yl)-N′-(4-{7-[3-(4-ethyl-piperazin-1-yl)propyl]imidazo[2,1-b][1,3]benzothiazol-2-yl}phenyl)urea hydrochloride] |  | 
6 |  |  |  |  | CC(C)(C)c1cc(NC(=O)Nc2ccc(-c3cn4c(n3)sc3cc(OCCN5CCOCC5)ccc34)cc2)no1 [Compound B1, N-(5-tert-Butyl-isoxazol-3-yl)-N′-{4-[7-(2-morpholin-4-yl-ethoxy)imidazo[2,1-b][1,3]benzothiazol-2-yl]phenyl}urea] |  | < 10
7 | < 10 | < 10 | < 10 |  | CC(C)(C)c1cc(NC(=O)Nc2ccc(-c3cn4c(n3)sc3cc(OCCN5CCCCC5)ccc34)cc2)no1 [Compound B3, 1-(5-tert-Butyl-isoxazol-3-yl)-3-{4-[7-(2-piperidin-1-yl-ethoxy)-benzo[d]imidazo[2,1-b]thiazol-2-yl]-pheny}-urea hydrochloride] |  | 
8 | < 10 |  | < 10 | 10 to 100 | CC(C)(C)c1cc(NC(=O)Nc2ccc(-c3cn4c(n3)sc3cc(CC(=O)NCCN5CCCC5)ccc34)cc2)no1 [Compound C15, 2-(2-{4-[3-(5-tert-butyl-isoxazol-3-yl)-ureido]-phenyl}-benzo[d]imidazo[2,1-b]thiazol-7-yl)-N-(2-pyrrolidin-1-yl-ethyl)-acetamide hydrochloride] |  | 
9 | < 10 | < 10 |  |  | CN1CCN(c2ccc3c(c2)sc2nc(-c4ccc(NC(=O)Nc5cc(C(C)(C)C)on5)cc4)cn23)CC1 [Compound A7, 1-(5-tert-butyl-isoxazol-3-yl)-3-{4-[7-(4-methyl-piperazin-1-yl)-benzo[d]imidazo[2,1-b]thiazol-2-yl]-phenyl}-urea] |  | 
10 | < 10 | < 10 | < 10 |  | CN1CCN(CCOc2ccc3c(c2)sc2nc(-c4ccc(NC(=O)Nc5cc(C(C)(C)C)on5)cc4)cn23)CC1 [Compound B4, 1-(5-tert-Butyl-isoxazol-3-yl)-3-(4-{7-[2-(4-methyl-piperazin-1-yl)-ethoxy]-benzo[d]imidazo[2,1-b]thiazol-2-yl}-phenyl)-urea hydrochloride] |  | 
11 | < 10 |  | < 10 | 10 to 100 | CC(C)(C)c1cc(NC(=O)Nc2ccc(-c3cn4c(n3)sc3cc(C(=O)NCCN5CCCCC5)ccc34)cc2)no1 [Compound C20, 2-{4-[3-(5-tert-butyl-isoxazol-3-yl)-ureido]-phenyl}-imidazo[2,1-b][1,3]benzothiazole-7-carboxylic Acid (2-Piperidin-1-yl-ethyl)-amide hydrochloride] |  | 

Row | SMILES | IC50 (MV4-11 cells; [1]) [nM] | Kd (FLT3; [2]) [nM] | Kd (KIT) [nM] | Kd (CSF1R) [nM] | Kd (FLT3) [nM] | IC50 (MV4-11 cells; [3]) [nM]
12 | CC(C)(C)c1cc(NC(=O)Nc2ccc(-c3cn4c(n3)sc3cc(N5CCOCC5)ccc34)cc2)no1 [Compound A6, 1-(5-tert-Butyl-isoxazol-3-yl)-3-[4-(7-morpholin-4-yl-benzo[d]imidazo[2,1-b]thiazol-2-yl)-phenyl]-urea] | < 10 |  |  |  | < 10 | 
13 | CCN1CCN(C(=O)Cc2ccc3c(c2)sc2nc(-c4ccc(NC(=O)Nc5cc(C(C)(C)C)on5)cc4)cn23)CC1 [Compound C17, 1-(5-tert-butyl-isoxazol-3-yl)-3-(4-{7-[2-(4-ethyl-piperazin-1-yl)-2-oxo-ethyl]benzo[d]imidazo[2,1-b]thiazol-2-yl}-phenyl)-urea hydrochloride] |  |  | < 10 | 10 to 100 |  | < 10
14 | CC(C)(C)c1cc(NC(=O)Nc2ccc(-c3cn4c(n3)sc3cc(F)ccc34)cc2)no1 [Compound A2, 1-(5-tert-butyl-isoxazol-3-yl)-3-[4-(7-fluoro-benzo[d]imidazo[2,1-b]thiazol-2-yl)-phenyl]-urea] | < 10 |  |  |  | 10 to 100 | 
15 | COc1ccc2c(c1)sc1nc(-c3ccc(NC(=O)Nc4cc(C(C)(C)C)on4)cc3)cn12 [Compound A5, 1-(5-tert-butyl-isoxazol-3-yl)-3-[4-(7-methoxy-benzo[d]imidazo[2,1-b]thiazol-2-yl)-phenyl]-urea] | < 10 |  |  |  | < 10 | 
16 | CC(C)(C)c1cc(NC(=O)Nc2ccc(-c3cn4c(n3)sc3cc(CC(=O)O)ccc34)cc2)no1 [Compound C2, 2-{2-[4-({[(5-tert-Butylisoxazol-3-yl)amino]carbonyl}amino)phenyl]imidazo[2,1-b][1,3]benzothiazol-7-yl}acetic acid] | < 10 |  | < 10 |  | < 10 | 
17 | Cc1ccc2c(c1)sc1nc(-c3ccc(NC(=O)Nc4cc(C(C)(C)C)on4)cc3)cn12 [Compound A3, 1-(5-tert-butyl-isoxazol-3-yl)-3-[4-(7-methyl-benzo[d]imidazo[2,1-b]thiazol-2-yl)-phenyl]-urea] | < 10 |  |  |  | < 10 | 
18 | CC(C)(C)c1cc(NC(=O)Nc2ccc(-c3cn4c(n3)sc3cc(OC(=O)[C@@H]5CCCN5)ccc34)cc2)no1 [Compound B6, (2S)-pyrrolidine-2-carboxylic acid 2-{4-[3-(5-tert-butyl-isoxazol-3-yl)-ureido]-phenyl}-benzo[d]imidazo[2,1-b]thiazol-7-yl ester] | < 10 |  | 10 to 100 |  | < 10 | 
19 | CCOC(=O)Cc1ccc2c(c1)sc1nc(-c3ccc(NC(=O)Nc4cc(C(C)(C)C)on4)cc3)cn12 [Compound C1, Ethyl 2-{2-[4-({[(5-tert-Butylisoxazol-3-yl)amino]carbonyl}amino)phenyl]imidazo[2,1-b][1,3]benzothiazol-7-yl}acetate] | < 10 |  | < 10 |  | < 10 | 
20 | CCN(CC)CCOc1ccc2c(c1)sc1nc(-c3ccc(NC(=O)Nc4cc(C(C)(C)C)on4)cc3)cn12 [Compound B2, 1-(5-tert-Butyl-isoxazol-3-yl)-3-{4-[7-(2-diethylamino-ethoxy)-benzo[d]imidazo[2,1-b]thiazol-2-yl]-phenyl}-urea] | < 10 |  | < 10 |  | < 10 | 
